Counter-ions that a name gives are not always drawn.
Test system: peripheral blood mononuclear cells (PBMCs) from healthy donors
Test: IFN production by R848-activated PBMCs, quantified with twINNE luciferase reporter cell line
Assay type: cell-based, human
Details: Homo sapiens, PBMC; read-out: IC50 of anti-inflammatory activity (IFN production by activated PBMCs)
Experimental: The blood from healthy donors was obtained from “Etablissement Français du Sang” (convention #19/EFS/029), Paris, France.
In vitro experiments were performed using human peripheral blood mononuclear cells (PBMCs) isolated by density centrifugation from peripheral blood leukocyte separation medium, lymphoprep (Stemcell Technologies).
PBMCs were cultured in RPMI 1640 (Sigma-Aldrich, MO, USA) containing 10% heat-inactivated fetal bovine serum (Sigma-Aldrich, MO, USA) at 37° C./5% CO2.
The PBMCs used herein were prepared as described in part A “immune cells preparation”, above. PBMCs were seeded at 4.10^6/mL. Cells were pre-treated with different concentration of examples according to the invention. Cells were then stimulated with the TLR7/8 agonist resiquimod—R848 (Sigma-Aldrich, MO, USA) at 5 μg/mL.
To quantify the secretion of functional IFN, a biological assay based on a stable cell line where luciferase reporter gene is controlled by five Interferon-Stimulated Response Elements (twINNE cell line) was used. First, supernatants of R848-stimulated PBMCs (see part B above) were harvested after 24 h of stimulation and frozen at −20° C. for storage. Then, supernatants were dispensed in culture wells of a 96-well plate containing 35.103 twINNE cells per well in Dulbecco's Modified Eagle's Medium supplemented with 10% Foetal Bovine Serum, 100 U/mL Penicillin and 100 μg/mL Streptomycin (1% Pen-Strep) and 1 mM glutamine (Sigma-Aldrich, MO, USA) at 37° C./5% CO2. After 24 h of culture, luciferase activity was determined by adding 60 μL of Bright-Glo reagents (Promega, Wisconsin, USA) to culture wells and measuring bioluminescence with EnSpire Multimode Plate Reader (PerkinElmer, Massachusetts, USA). When stated, for IC50 calculation, dose-response curves fitted using the nonlin fit (variable slope) analysis in GraphPad Prism software (GraphPad Software, Califronia, USA).
IFN production was quantified (as specified in Materials and Methods, part C “quantification of interferon secretion”) using twINNE reporter cell line.

| SMILES | IC50 |
| --- | --- |
| Clc1ccc2c(c1)CN1C(CSC3=N[C@@H]4CCCC[C@H]4N3)=CSC1=N2 [Example 40, 7-chloro-3-((((3aR,7aR)-3a,4,5,6,7,7a-hexahydro-1H-benzo[d]imidazol-2-yl)thio)methyl)-5H-thiazolo[2,3-b]quinazoline dihydrochloride] | ≤ 10 µM |
| CCCCC1CN=C(SCC2=CSC3=Nc4ccc(Cl)cc4CN23)N1 (stereo not drawn) [Example 41, 3-(((5-butyl-4,5-dihydro-1H-imidazol-2-yl)thio)methyl)-7-chloro-5H-thiazolo[2,3-b]quinazoline dihydrochloride] | ≤ 10 µM |
| Clc1ccc2c(c1)N=C1SC=C(CSC3=NCc4ccccc4N3)N1C2 [Example 42, 8-chloro-3-(((1,4-dihydroquinazolin-2-yl)thio)methyl)-5H-thiazolo[2,3-b]quinazoline dihydrochloride] | ≤ 10 µM |
| C1=C(CSC2=NCc3ccccc3N2)N2C(=Nc3ccccc3C2c2ccccc2)S1 (stereo not drawn) [Example 43, 3-(((3,4-dihydroquinazolin-2-yl)thio)methyl)-5-phenyl-5H-thiazolo[2,3-b]quinazoline dihydrochloride] | ≤ 10 µM |
| Clc1ccc2c(c1)CN1C(CSC3=NCc4cc(Cl)ccc4N3)=CSC1=N2 [Example 44, 7-chloro-3-(((6-chloro-1,4-dihydroquinazolin-2-yl)thio)methyl)-5H-thiazolo[2,3-b]quinazoline dihydrochloride] | > 32 µM |
| CN1CCN=C1SCC1=CSC2=Nc3ccc(Cl)cc3CN12 [Example 45, 7-chloro-3-(((1-methyl-4,5-dihydro-1H-imidazol-2-yl)thio)methyl)-5H-thiazolo[2,3-b]quinazoline dihydrochloride] | ≤ 10 µM |
| COc1ccc(CC2(C)CN3C(CSC4=NCc5ccccc5N4)=CSC3=N2)cc1 (stereo not drawn) [Example 46, 3-(((3,4-dihydroquinazolin-2-yl)thio)methyl)-6-(4-methoxybenzyl)-6-methyl-5,6-dihydroimidazo[2,1-b]thiazole dihydrochloride] | ≤ 10 µM |
| Clc1ccc2c(c1)CN1C(CSC3=NCCN3Cc3ccccc3)=CSC1=N2 [Example 47, 3-(((1-benzyl-4,5-dihydro-1H-imidazol-2-yl)thio)methyl)-7-chloro-5H-thiazolo[2,3-b]quinazoline dihydrochloride] | ≤ 10 µM |
| CC(C)N1CCN=C1SCC1=CSC2=Nc3ccc(Cl)cc3CN12 [Example 48, 7-chloro-3-(((1-isopropyl-4,5-dihydro-1H-imidazol-2-yl)thio)methyl)-5H-thiazolo[2,3-b]quinazoline dihydrochloride] | ≤ 10 µM |
| Clc1ccc2c(c1)CN1C(CSC3=NCC4CCCCN34)=CSC1=N2 (stereo not drawn) [Example 49, 7-chloro-3-(((1,5,6,7,8,8a-hexahydroimidazo[1,5-a]pyridin-3-yl)thio)methyl)-5H-thiazolo[2,3-b]quinazoline dihydrochloride] | ≤ 10 µM |
| c1ccc(CC2CN=C(SCCN3CCCCC3)N2)cc1 (stereo not drawn) [Example 50, 1-(2-((5-benzyl-4,5-dihydro-1H-imidazol-2-yl)thio)ethyl)piperidine dihydrochloride] | > 32 µM |
| c1ccc(CC2CN=C(SCCCN3CCCC3)N2)cc1 (stereo not drawn) [Example 52, 5-benzyl-2-((3-(pyrrolidin-1-yl)propyl)thio)-4,5-dihydro-1H-imidazole dihydrochloride] | > 32 µM |
| CN1CCCC1CSC1=NCC(Cc2ccccc2)N1 (stereo not drawn) [Example 53, 5-benzyl-2-(((1-methylpyrrolidin-2-yl)methyl)thio)-4,5-dihydro-1H-imidazole dihydrochloride] | 10 to 32 µM |
| c1ccc(CC2CN=C(SCCN3CCCC3)N2)cc1 (stereo not drawn) [Example 54, 5-benzyl-2-((2-(pyrrolidin-1-yl)ethyl)thio)-4,5-dihydro-1H-imidazole dihydrochloride] | 10 to 32 µM |
| c1ccc(CC2CN=C(SCc3ccncc3)N2)cc1 (stereo not drawn) [Example 56, 4-(((5-benzyl-4,5-dihydro-1H-imidazol-2-yl)thio)methyl)pyridine dihydrochloride] | 10 to 32 µM |
| CN1CCCC1CCSC1=NCC(Cc2ccccc2)N1 (stereo not drawn) [Example 57, 5-benzyl-2-((2-(1-methylpyrrolidin-2-yl)ethyl)thio)-4,5-dihydro-1H-imidazole dihydrochloride] | > 32 µM |
| c1ccc(CC2CN=C(SCCN3CCCCCC3)N2)cc1 (stereo not drawn) [Example 58, 1-(2-((5-benzyl-4,5-dihydro-1H-imidazol-2-yl)thio)ethyl)azepane dihydrochloride] | 10 to 32 µM |

| SMILES | IC50 |
| --- | --- |
| Clc1ccc2c(c1)CN=C(SCCN1CCCC1)N2 [Example 59, 6-chloro-2-((2-(pyrrolidin-1-yl)ethyl)thio)-1,4-dihydroquinazoline dihydrochloride] | ≤ 10 µM |
| Clc1nccc2sc(CSC3=NCC(Cc4ccccc4)N3)cc12 (stereo not drawn) [Example 61, 2-(((5-benzyl-4,5-dihydro-1H-imidazol-2-yl)thio)methyl)-4-chlorothieno[3,2-c]pyridine dihydrochloride] | ≤ 10 µM |
| C1=C(CSC2=NCc3ccccc3N2)N2CC(Cc3cccs3)N=C2S1 (stereo not drawn) [Example 63, 3-(((3,4-dihydroquinazolin-2-yl)thio)methyl)-6-(thiophen-2-ylmethyl)-5,6-dihydroimidazo[2,1-b]thiazole dihydrochloride] | ≤ 10 µM |
| Clc1ccc2c(c1)CN1C(CSC3=NCC(Cc4cccs4)N3)=CSC1=N2 (stereo not drawn) [Example 64, 7-chloro-3-(((5-(thiophen-2-ylmethyl)-4,5-dihydro-1H-imidazol-2-yl)thio)methyl)-5H-thiazolo[2,3-b]quinazoline dihydrochloride] | ≤ 10 µM |
| Clc1ccc2c(c1)CN1C(CSC3=NCc4ccc(Br)cc4N3)=CSC1=N2 [Example 66, 3-(((7-bromo-1,4-dihydroquinazolin-2-yl)thio)methyl)-7-chloro-5H-thiazolo[2,3-b]quinazoline dihydrochloride] | ≤ 10 µM |
| Clc1ccc2c(c1)CN1C(CSC3=NCc4cc(Br)ccc4N3)=CSC1=N2 [Example 67, 3-(((6-bromo-1,4-dihydroquinazolin-2-yl)thio)methyl)-7-chloro-5H-thiazolo[2,3-b]quinazoline dihydrochloride] | 10 to 32 µM |
| Clc1ccc2c(c1)CN1C(CSC3=NCC4(CC4)N3)=CSC1=N2 [Example 68, 3-(((4,6-diazaspiro[2.4]hept-5-en-5-yl)thio)methyl)-7-chloro-5H-thiazolo[2,3-b]quinazoline dihydrochloride] | ≤ 10 µM |
| Brc1ccc2c(c1)CN1C(CSC3=NCc4ccccc4N3)=CSC1=N2 [Example 69, 7-bromo-3-(((1,4-dihydroquinazolin-2-yl)thio)methyl)-5H-thiazolo[2,3-b]quinazoline dihydrochloride] | ≤ 10 µM |
| Brc1ccc2c(c1)N=C1SC=C(CSC3=NCc4ccccc4N3)N1C2 [Example 70, 8-bromo-3-(((1,4-dihydroquinazolin-2-yl)thio)methyl)-5H-thiazolo[2,3-b]quinazoline dihydrochloride] | ≤ 10 µM |
| c1ccc2c(c1)CN(CCSC1=NCc3ccccc3N1)C2 [Example 71, 2-((2-(isoindolin-2-yl)ethyl)thio)-3,4-dihydroquinazoline dihydrochloride] | 10 to 32 µM |
| CC1(c2ccccc2)CN=C(SCC2=CSC3=Nc4ccc(Cl)cc4CN23)N1 (stereo not drawn) [Example 72, 7-chloro-3-(((5-methyl-5-phenyl-4,5-dihydro-1H-imidazol-2-yl)thio)methyl)-5H-thiazolo[2,3-b]quinazoline dihydrochloride] | ≤ 10 µM |
| CC1(C)N=C(SCC2=CSC3=Nc4cccc(F)c4CN23)Nc2ccccc21 [Example 73, 3-(((4,4-dimethyl-1,4-dihydroquinazolin-2-yl)thio)methyl)-6-fluoro-5H-thiazolo[2,3-b]quinazoline dihydrochloride] | > 32 µM |
| Clc1ccc2c(ccn2CCSC2=NCc3ccccc3N2)c1 [Example 74, 2-((2-(5-chloro-1H-indol-1-yl)ethyl)thio)-3,4-dihydroquinazoline hydrochloride] | > 32 µM |
| CC1(C)N=C(SCC2=CSC3=Nc4ccc(Cl)cc4CN23)Nc2ccccc21 [Example 75, 7-chloro-3-(((4,4-dimethyl-1,4-dihydroquinazolin-2-yl)thio)methyl)-5H-thiazolo[2,3-b]quinazoline dihydrochloride] | > 32 µM |
| Clc1ccc2c(c1)CN1C(CSC3=NCCc4ccccc4N3)=CSC1=N2 [Example 76, 7-chloro-3-(((4,5-dihydro-1H-benzo[d][1,3]diazepin-2-yl)thio)methyl)-5H-thiazolo[2,3-b]quinazoline dihydrochloride] | 10 to 32 µM |
| CC1(C)N=C(SCCN2CCCC2)Nc2ccccc21 [Example 78, 4,4-dimethyl-2-((2-(pyrrolidin-1-yl)ethyl)thio)-1,4-dihydroquinazoline dihydrochloride] | > 32 µM |
